Biological target: IGP1 (IGP1/CORK1) ectodomain (Arabidopsis thaliana, UniProt F4I3K3)
Assay: ITC
Assay type: binding
Conditions: purified ectodomain; ligand in LRR domain pocket, three subsites; N=1

- Kd: ~1000 nM
Compound: OC[C@H]1O[C@@H](O[C@H]2[C@H](O)[C@@H](O)[C@H](O[C@H]3[C@H](O)[C@@H](O)C(O)O[C@@H]3CO)O[C@@H]2CO)[C@H](O)[C@@H](O)[C@@H]1O (stereo partly shown) [CEL3, cellotriose]

Source: doi:10.1101/2025.09.28.679030v1 (biorxiv, 2025)
